Where a name gives a salt, the structure may show the parent alone.
What was measured:
human GlyT1c transporter = target: T1, human GlyT1c transporter (Homo sapiens, UniProt P48067); experiment: [3H]-(R)-NPTS radioligand binding assay using recombinant hGlyT1 expressing cell membranes; details: 0.5 nM [3H]-(R)-NPTS, apparent Ki via Cheng-Prusoff, read-out: [3H]-(R)-NPTS bindung Ki
T1 construct: expressed in transfected cells; host or cells: recombinant hGlyT1-expressing cells
T1 sequence (P48067 1-706): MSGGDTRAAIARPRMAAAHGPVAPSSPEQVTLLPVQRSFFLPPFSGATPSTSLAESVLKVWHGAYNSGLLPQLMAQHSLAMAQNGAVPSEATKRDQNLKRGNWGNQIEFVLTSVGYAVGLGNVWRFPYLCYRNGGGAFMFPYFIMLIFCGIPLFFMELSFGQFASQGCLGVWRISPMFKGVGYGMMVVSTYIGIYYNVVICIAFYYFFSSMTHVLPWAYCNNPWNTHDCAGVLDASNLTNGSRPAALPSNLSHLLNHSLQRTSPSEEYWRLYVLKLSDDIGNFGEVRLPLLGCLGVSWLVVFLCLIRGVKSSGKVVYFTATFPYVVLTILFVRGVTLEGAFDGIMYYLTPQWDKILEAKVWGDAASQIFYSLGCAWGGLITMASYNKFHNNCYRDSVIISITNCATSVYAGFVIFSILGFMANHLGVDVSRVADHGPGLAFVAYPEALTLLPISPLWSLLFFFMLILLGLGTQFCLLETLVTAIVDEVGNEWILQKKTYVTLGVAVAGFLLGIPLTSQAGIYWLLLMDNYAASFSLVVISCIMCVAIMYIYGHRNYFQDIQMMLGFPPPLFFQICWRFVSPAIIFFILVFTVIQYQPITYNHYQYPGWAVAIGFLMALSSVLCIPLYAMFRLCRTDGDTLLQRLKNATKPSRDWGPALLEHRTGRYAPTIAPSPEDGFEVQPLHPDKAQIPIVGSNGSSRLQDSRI
Method: 2. [^3H]-(R)-NPTS Radioligand Binding Assays using Recombinant hGlyT1 Expressing Cell Membranes:
Radioligand binding to human GlyT1c transporter-expressing membranes was measured in duplicate in a total volume of 200 μl in 96-well plates. To 100 μl of membrane suspension (yielding a final membrane protein concentration of 50 μg/ml) in assay buffer (120 mM NaCl, 2 mM KCl, 10 mM Hepes, 1 mM MgCl2, 1 mM CaCl2, pH 7.5) […] of [^3H]-(R)NPTS (0.5 nM final) were added in assay buffer. For competition experiments 10 μl of buffer or unlabeled compound solution obtained from dilution series of test compounds in DMSO followed. An intermediate 1:10 dilution in assay buffer yielded a final DMSO concentration of 1%. Non-specific binding was determined in the presence of 10 μM Org24598 (or its racemate Org24461) for [^3H]-(R)-NPTS. After incubation at room temperature for 1 h, the incubation mixture was harvested (Tomtec Mach III U Harvester) through 96-well GF/B filter plates (PerkinElmer), presoaked for 1 h with 40 μl per well of 0.1% polyethylene-imine (PEI). After washing twice with ice-cold 50 mM Tris-HCl pH 7.4 buffer, drying and addition of 35 μl scintillator (BetaplateScint, PerkinElmer) per well followed. The radioactivity was determined by liquid scintillation spectrometry in a MicroBeta (PerkinElmer) plate counter.
Data analysis: For binding of [^3H]-(R)-NPTS to cell membranes, the calculation of Kd and Bmax values from the saturation binding assays and the IC50 values from the displacement binding was performed by iterative non-linear regression analysis adapted from the ‘Ligand’ program (Munson and Rodbard, 1980). Radioligand displacement curves in absence or in presence of increasing concentrations of tested compounds were fitted using a one-site fit and the apparent Ki values were calculated from the IC50 values using the Cheng-Prusoff equation (Cheng and Prusoff 1973).

Human GlyT1c = target: T2, Human GlyT1c (Homo sapiens, UniProt P48067); experiment: Glycine uptake in recombinant hGlyT1 expressing cells; assay type: cell-based; details: hGlyT1c_5_CHO cells; [3H]-glycine uptake, 60-120 min
T2 construct: expressed in transfected cells; host or cells: CHO (hGlyT1c_5_CHO clone)
T2 sequence (P48067 1-706): T1 sequence (P48067 1-706)
Method: 1. Glycine Uptake in Recombinant hGlyT1 Expressing Cells:
Human GlyT1c expressing recombinant hGlyT1c—5_CHO cells were plated at 20,000 cells per well in 96 well Cytostar-T scintillation microplates (Amersham Biosciences) and cultured to sub-confluency for 24 h. For glycine uptake assays the culture medium was aspirated and the cells were washed once with 100 μl HBSS (Gibco BRL, #14025-050) with 5 mM L-Alanine (Merck #1007). 80 μl HBSS buffer were added, followed by 10 μl inhibitor or vehicle (10% DMSO) and 10 μl [^3H]-glycine (TRK71, Amersham Biosciences) to a final concentration of […] for initiation of glycine uptake. The plates were placed in a Wallac Microbeta (PerkinElmer) and continuously counted by solid phase scintillation spectrometry during up to 3 hours. Nonspecific uptake was determined in the presence of 10 μM Org24598. IC50 calculations were made by four-parametric logistic nonlinear regression analysis (GraphPad Prism) using determinations within the range of linear increase of [^3H]-glycine incorporation between 60 and 120 min.

| SMILES | Ki (human GlyT1c transporter) [µM] | IC50 (Human GlyT1c) [µM] |
| --- | --- | --- |
| Cc1cc(N[C@@H](c2ccccc2)[C@@H]2CCCCN2)c2ccccc2n1 [Example 60, (2-Methylquinolin-4-yl)-((S)-phenyl-(S)-piperidin-2-yl-methyl)-amine] | ≤ 1 | ≤ 1 |
| COc1cccc2c(N[C@@H](CN(C)C)c3ccc(Cl)cc3)cc(C)nc12 [Example 77, (R)-1-(4-Chlorphenyl)-N*1*-(8-methoxy-2-methylquinoline-4-yl)-N*2*,N*2*-dimethylethane-1,2-diamin] | ≤ 1 | ≤ 10 |
| COc1cccc2c(NC(C(N)=O)c3ccccc3)cc(C)nc12 (stereo not drawn) [Example 74, 2-(8-Methoxy-2-methylquinolin-4-ylamino)-2-phenylacetamide] | ≤ 10 | ≤ 1000 |
| COc1cccc2c(N[C@H](C)c3ccc(Cl)cc3)cc(C)nc12 [Example 58, [(R)-1-(4-Chlorophenyl)-ethyl]-(8-methoxy-2-methylquinolin-4-yl)-amine] | ≤ 0.1 | ≤ 1 |
| COc1cccc2c(NC(c3ccc(Cl)cc3)C3CC3)cc(C)nc12 (stereo not drawn) [Example 72, [(4-Chlorophenyl)-cyclopropylmethyl]-(8-methoxy-2-methylquinolin-4-yl)-amine] | ≤ 1 | ≤ 10 |
| COc1cccc2c(NCc3ccc(C(F)(F)F)c(Cl)c3)cc(C)nc12 [Example 80, (3-Chloro-4-trifluoromethylbenzyl)-(8-methoxy-2-methylquinolin-4-yl)-amine] | ≤ 1 | ≤ 1 |
| Cc1cc(NCc2ccc(Cl)c(Cl)c2)c2cccc(S(=O)(=O)Nc3ccc(Cl)cc3)c2n1 [Example 4, 4-(3,4-Dichlorobenzylamino)-2-methylquinoline-8-sulfonic (4-chlorophenyl)-amide] | ≤ 1 | ≤ 100 |
| Cc1cc(NCc2ccc(Cl)c(Cl)c2)c2cccc(N3CCOCC3)c2n1 [Example 6, (3,4-Dichlorobenzyl)-(2-methyl-8-morpholin-4-yl-quinolin-4-yl)-amine hydrobromide] | ≤ 0.1 | ≤ 1 |
| Cc1cc(NCc2ccc(Cl)c(Cl)c2)c2cccc(OCCNS(=O)(=O)c3ccc4ccccc4c3)c2n1 [Example 28, Naphthyl-2-sulfonic {2-[4-(3,4-dichlorobenzylamino)-2-methylquinolin-8-yloxy]-ethyl}-amide] | ≤ 0.1 | ≤ 1 |
| Cc1cc(NCc2ccc(Cl)c(Cl)c2)c2cccc(OCC(C)C)c2n1 [Example 51, (3,4-Dichlorobenzyl)-(8-isobutoxy-2-methylquinolin-4-yl)-amine] | ≤ 1 | ≤ 1 |
| Cc1cc(NCc2ccc(Cl)c(Cl)c2)c2cccc(OCCNS(C)(=O)=O)c2n1 [Example 21] | ≤ 0.01 | ≤ 0.1 |
| COc1cccc2c(N[C@H](CN(C)C)c3ccc(Cl)cc3)cc(C)nc12 [Example 76, (S)-1-(4-Chlorophenyl)-N*1*-(8-methoxy-2-methylquinolin-4-yl)-N*2*,N*2*-dimethylethane-1,2-diamine] | ≤ 0.001 | ≤ 0.1 |
| Cc1cc(NCc2ccc(Cl)c(Cl)c2)c2cccc(OCCNC(=O)c3ccccc3)c2n1 [Example 22] | ≤ 0.01 | ≤ 0.1 |
| Cc1cc(N[C@@H](c2ccccc2)[C@@H]2CCCCN2)c2cccc(OCCNS(C)(=O)=O)c2n1 [Example 37, N-(2-{2-Methyl-4-[((S)-phenyl-(S)-piperidin-2-yl-methyl)-amino]-quinolin-8-yloxy}-ethyl)methanesulfonamide dihydrochloride] | ≤ 0.1 | ≤ 1 |
| C=CCN1CCCC[C@H]1[C@@H](Nc1cc(C)nc2c(OCCNS(C)(=O)=O)cccc12)c1ccccc1 [Example 35, N-[2-(4-{[(S)—((S)-1-Allylpiperidin-2-yl)-phenylmethyl]-amino}-2-methylquinolin-8-yloxy)ethyl]methanesulfonamide] | ≤ 10 | ≤ 10 |
| COc1cccc2c(NC(CN(C)C)c3ccccc3)cc(C)nc12 (stereo not drawn) [Example 71, N*1*-(8-Methoxy-2-methylquinolin-4-yl)-N*2*,N*2*-dimethyl-1-phenylethane-1,2-diamine] | ≤ 0.1 | ≤ 1 |
| C=CCN1CCCC[C@H]1[C@@H](Nc1cc(C)nc2c(OC)cccc12)c1ccccc1 [Example 53, [(S)—((S)-1-Allylpiperidin-2-yl)-phenylmethyl]-(8-methoxy-2-methylquinolin-4-yl)-amine] | ≤ 10 | ≤ 100 |

Second part, the compound after the results:

| Ki (human GlyT1c transporter) [µM] | IC50 (Human GlyT1c) [µM] | SMILES |
| --- | --- | --- |
| ≤ 1 | ≤ 0.1 | Cc1cc(NCc2ccc(Cl)c(Cl)c2)c2cccc(OC(F)(F)F)c2n1 [Example 56, (3,4-Dichloro-benzyl)-(2-methyl-8-trifluoromethoxyquinolin-4-yl)-amine] |
| ≤ 0.1 | ≤ 1 | CNc1cccc2c(NCc3ccc(Cl)c(Cl)c3)cc(C)nc12 [Example 15, N*4*-(3,4-Dichlorobenzyl)-N*8*-methyl-2-methylquinolin-4,8-diamine] |
| ≤ 1 | ≤ 1 | Cc1cc(NCc2ccc(Cl)c(Cl)c2)c2cccc(F)c2n1 [Example 82, (3,4-Dichlorobenzyl)-(8-fluoro-2-methylquinolin-4-yl)-amine] |
| ≤ 0.1 | ≤ 1 | Cc1cc(NCc2ccc(Cl)c(Cl)c2)c2cccc(N(C)C)c2n1 [Example 16, N*4*-(3,4-Dichlorobenzyl)-N*8*-dimethyl-2-methylquinolin-4,8-diamine hydrochloride] |
| ≤ 0.1 | ≤ 1 | CCCOc1cccc2c(NCc3ccc(Cl)c(Cl)c3)cc(C)nc12 [Example 43, (3,4-Dichlorobenzyl)-(2-methyl-8-propoxyquinolin-4-yl)-amine] |
| ≤ 10 | ≤ 10 | Cc1cc(NCc2ccc(Cl)c(Cl)c2)c2cccc(NC(=O)C(C)C)c2n1 [Example 14, N-[4-(3,4-Dichlorobenzylamino)-2-methylquinolin-8-yl]-isobutyramide] |
| ≤ 0.1 | ≤ 0.1 | Cc1cc(NCc2ccc(Cl)c(Cl)c2)c2cccc(C)c2n1 [Example 87, (3,4-Dichlorobenzyl)-(2-methyl-8-methylquinolin-4-yl)-amine] |
| ≤ 1 | ≤ 1 | Cc1cc(NCc2ccc(Cl)c(Cl)c2)c2cccc(N3CCCC3)c2n1 [Example 7, (3,4-Dichlorobenzyl)-(2-methyl-8-pyrrolidin-1-yl-quinolin-4-yl)-amine hydrochloride] |
| ≤ 1 | ≤ 10 | Cc1cc(NCc2ccc(Cl)c(Cl)c2)c2cccc(S(C)(=O)=O)c2n1 [Example 93, (3,4-Dichlorobenzyl)-(8-methanesulfonyl-2-methylquinolin-4-yl)-amine] |
| ≤ 0.1 | ≤ 1 | Cc1cc(NCc2ccc(Cl)c(Cl)c2)c2ccccc2n1 [Example 89, (3,4-Dichlorobenzyl)-(2-methylquinolin-4-yl)-amine] |

From patent US8420670B2 (Abbott Laboratories, priority 2007, dated 2013)
